Experiments:
Format in all cases: biochemical
[1] = molecular target: T1, CDK1:Cyclin-B (Homo sapiens, UniProt P06493); experiment: CDK1 Screening Assay; conditions: Table 1; read-out: CDK1 IC50
T1 construct: purchased New England Biolabs 6020; host or cells: insect cells
Description: (§1) 70 μL of the kinase reaction mixture was dispensed into the well of a streptavidin coated FlashPlate™ (Cat. # SMP103, NEN, Boston, Mass.). Then 1 μL of test compound stock in 100% DMSO was added to the wells resulting in a final concentration of 1% DMSO in the reaction with a 100 μl final reaction volume. Next, CDK1:Cyclin-B protein was diluted in 50 mM Tris-HCl pH=8.0, 0.1% BSA at a concentration of 1 ng per μL and 30 μl (30 ng enzyme per test well) was added to each well to initiate the reaction. The reaction was incubated for one hour at 30° C. At the end of the 1-hour incubation, the reaction was terminated by aspirating the reaction mixture from the plate and washing the wells twice with PBS containing 100 mM EDTA. The histone-H1 biotinylated peptide substrate became immobilized on the Flashplate™ and the incorporation of ^33P-γ-ATP was measured by reading the plate on a scintillation counter. Inhibition of the enzymatic activity of CDK1 was measured by observing a reduced amount of ^33P-γ-ATP incorporated into the immobilized peptide.
Assays to test compound inhibition of other kinases were preformed using methods that measure the amount of phosphorylation of a biotinylated peptide substrate. Biotinylated peptide substrates were selected from the literature as appropriate for the enzyme being evaluated. […] Assay conditions vary slightly for each protein kinase, for example, insulin receptor kinase requires 10 mM MnCl2 for activity and Calmodulin-dependent protein kinase requires calmodulin and 10 mM CaCl2. These assay conditions are known in the art. The reaction mixture was dispensed into the wells of a streptavidin coated Flashplate and 1 μl drug stock in 100% DMSO was added to a 100 μl reaction volume resulting in a final concentration of 1% DMSO on the reaction. Enzyme was diluted in 50 mM Tris-HCl pH=8.0, 0.1% BSA and add to each well. The reaction was incubated for one hour at 30° C. in the presence of compound. After one hour the reaction mix was aspirated from the plate and the plate was washed with PBS containing 100 mM EDTA. The plate was read on a scintillation counter to determine ^33P-γ-ATP incorporated into the immobilized peptide. Test compounds were assayed in duplicate at 8 concentrations [100 uM, 10 uM, 1 uM, 100 nM, 10 nM, 1 nM, 100 pM, 10 pM]. A maximum and minimum signal for the assay was determined on each plate. The IC50 was calculated from the dose response curve of the percent inhibition of the maximum signal in the assay according to the formula [max signal—background/test compound signal—background (100)=% inhibition] by graphing the percent inhibition against the log concentration of test compound. Known inhibitor compounds appropriate for the kinase being assayed were also included on each plate. […]

[2] = molecular target: T2, VEGF-R (vascular endothelial growth factor receptor-2) (Rattus norvegicus, UniProt O08775); experiment: VEGF-R Screening Assay; conditions: Table 1; read-out: VEGF-R IC50
T2 construct: polyhistidine (6xHIS) (N)
Description: as §1, with “a 100 μL final reaction” for “a 100 μl final reaction”, “volume. Next, soluble rat tyrosine kinase containing an N-terminal 6×HIS tag was diluted” for “volume. Next, CDK1:Cyclin-B protein was diluted”, “concentration of 5 ng per” for “concentration of 1 ng per”, “and 30 μL (150 ng enzyme” for “and 30 μl (30 ng enzyme”, “EDTA. The PLC1 biotinylated peptide” for “EDTA. The histone-H1 biotinylated peptide”, “activity of the VEGF-R was measured” for “activity of CDK1 was measured”
(§2) Assays to test compound inhibition of other kinases were preformed using methods that measure the amount of phosphorylation of a biotinylated peptide substrate. Biotinylated peptide substrates were selected from the literature as appropriate for the enzyme being evaluated. […] Assay conditions vary slightly for each protein kinase, for example, insulin receptor kinase requires 10 mM MnCl2 for activity and Calmodulin-dependent protein kinase requires calmodulin and 10 mM CaCl2. These assay conditions are known in the art. The reaction mixture was dispensed into the wells of a streptavidin coated Flashplate and 1 μl drug stock in 100% DMSO was added to a 100 μl reaction volume resulting in a final concentration of 1% DMSO on the reaction. Enzyme was diluted in 50 mM Tris-HCl pH=8.0, 0.1% BSA and add to each well. The reaction was incubated for one hour at 30° C. in the presence of compound. After one hour the reaction mix was aspirated from the plate and the plate was washed with PBS containing 100 mM EDTA. The plate was read on a scintillation counter to determine ^33P-γ-ATP incorporated into the immobilized peptide. Test compounds were assayed in duplicate at 8 concentrations [100 uM, 10 uM, 1 uM, 100 nM, 10 nM, 1 nM, 100 pM, 10 pM]. A maximum and minimum signal for the assay was determined on each plate. The IC50 was calculated from the dose response curve of the percent inhibition of the maximum signal in the assay according to the formula [max signal—background/test compound signal—background (100)=% inhibition] by graphing the percent inhibition against the log concentration of test compound. Known inhibitor compounds appropriate for the kinase being assayed were also included on each plate.
(§3) CDK2 in complex with cyclin A is commercially available (Upstate Biotech, Lake Placid, N.Y.). The CDK4 complex was composed of a mouse CDK4 protein and a mouse Cyclin D1 protein (The mouse CDK4 protein was genetically fused to an N-terminal Flag-epitope tag and the mouse Cyclin D1 protein was fused with an N-terminal AU-1 epitope tag. The genes encoding these proteins were transferred to commercially available baculoviral vectors. The recombinant CDK4/D1 complex was then made by co-infecting commercially available insect cells with viruses carrying these two constructs). […] ERK-1 protein (Discontinued from Calbiochem). EGFR (epidermal growth factor receptor) is purified from human A431 cell membranes (Sigma, St. Louis, Mo., Cat.# E3641).

[3] = molecular target: T3, HER2 (human epidermal growth factor receptor-2) (Homo sapiens, UniProt P04626); experiment: Kinase Selectivity Assay HER2; conditions: Table 1; read-out: HER2 IC50
T3 construct: begins at amino acid 676 followed by the remainder of the HER2 cytoplasmic domain; polyhistidine (N)
Description: as §2, §3

T1 sequence (P06493 whole entry): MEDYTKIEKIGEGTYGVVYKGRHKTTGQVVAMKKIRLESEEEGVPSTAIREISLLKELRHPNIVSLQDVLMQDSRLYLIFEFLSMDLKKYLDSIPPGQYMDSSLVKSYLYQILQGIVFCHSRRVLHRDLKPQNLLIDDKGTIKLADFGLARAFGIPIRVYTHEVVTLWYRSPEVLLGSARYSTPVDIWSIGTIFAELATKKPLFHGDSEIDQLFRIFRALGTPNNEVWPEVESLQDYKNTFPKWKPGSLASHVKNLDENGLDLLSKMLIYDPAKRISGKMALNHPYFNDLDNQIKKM
T1 sequence (P14635 whole entry partner): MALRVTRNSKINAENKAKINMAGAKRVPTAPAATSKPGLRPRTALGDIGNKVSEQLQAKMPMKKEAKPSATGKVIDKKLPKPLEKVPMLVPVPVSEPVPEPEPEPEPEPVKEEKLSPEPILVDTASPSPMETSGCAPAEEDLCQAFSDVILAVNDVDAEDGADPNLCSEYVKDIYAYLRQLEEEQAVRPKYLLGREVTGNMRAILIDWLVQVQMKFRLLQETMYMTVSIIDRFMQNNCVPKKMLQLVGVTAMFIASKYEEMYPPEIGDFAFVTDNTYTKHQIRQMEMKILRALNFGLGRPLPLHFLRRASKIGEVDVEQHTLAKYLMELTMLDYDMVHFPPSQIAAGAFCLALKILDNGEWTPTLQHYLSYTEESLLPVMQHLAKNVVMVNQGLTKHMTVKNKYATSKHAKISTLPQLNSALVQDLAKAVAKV
T3 sequence (P04626 676-1255 limits assumed): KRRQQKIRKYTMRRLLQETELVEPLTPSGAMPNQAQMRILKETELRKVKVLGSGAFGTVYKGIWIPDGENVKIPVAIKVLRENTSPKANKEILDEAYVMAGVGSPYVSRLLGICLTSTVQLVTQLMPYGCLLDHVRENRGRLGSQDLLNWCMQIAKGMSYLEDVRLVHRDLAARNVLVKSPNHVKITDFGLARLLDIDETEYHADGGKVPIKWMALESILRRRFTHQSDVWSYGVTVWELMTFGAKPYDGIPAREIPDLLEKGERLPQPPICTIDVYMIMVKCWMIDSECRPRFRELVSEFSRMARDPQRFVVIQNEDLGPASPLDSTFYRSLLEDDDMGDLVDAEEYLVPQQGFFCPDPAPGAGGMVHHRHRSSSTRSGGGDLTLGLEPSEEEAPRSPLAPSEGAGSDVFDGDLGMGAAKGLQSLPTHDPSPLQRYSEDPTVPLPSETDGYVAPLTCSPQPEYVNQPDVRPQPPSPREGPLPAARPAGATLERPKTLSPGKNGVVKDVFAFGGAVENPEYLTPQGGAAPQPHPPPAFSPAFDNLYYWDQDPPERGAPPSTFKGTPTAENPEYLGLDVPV
T2 sequence (O08775 786-1343): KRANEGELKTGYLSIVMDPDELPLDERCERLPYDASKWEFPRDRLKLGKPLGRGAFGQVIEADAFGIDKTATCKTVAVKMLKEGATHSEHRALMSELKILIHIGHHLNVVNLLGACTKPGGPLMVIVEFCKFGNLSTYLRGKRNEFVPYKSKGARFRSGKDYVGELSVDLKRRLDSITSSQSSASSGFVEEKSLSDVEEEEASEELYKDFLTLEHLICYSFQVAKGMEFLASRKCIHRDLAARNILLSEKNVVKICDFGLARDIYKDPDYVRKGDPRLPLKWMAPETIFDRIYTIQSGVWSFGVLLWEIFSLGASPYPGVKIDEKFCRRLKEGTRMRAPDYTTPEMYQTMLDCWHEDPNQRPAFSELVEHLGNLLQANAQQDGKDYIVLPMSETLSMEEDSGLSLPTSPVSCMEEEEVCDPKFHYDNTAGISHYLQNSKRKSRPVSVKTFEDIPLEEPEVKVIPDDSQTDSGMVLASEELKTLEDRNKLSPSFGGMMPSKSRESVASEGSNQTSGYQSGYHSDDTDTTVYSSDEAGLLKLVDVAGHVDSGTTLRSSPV

Row | IC50 [1] [nM] | IC50 [2] [nM] | IC50 [3] [nM] | SMILES
1 | 1370 | 890 | 7460 | Cc1ccc(F)c(C(=O)n2nc(Nc3ccc(S(=O)(=O)O)cc3)nc2N)c1F [Cpd 60, 4-[[5-amino-1-(2,6-difluoro-3-methylbenzoyl)-1H-1,2,4-triazol-3-yl]amino]-benzenesulfonic acid]
2 | 1430 | 380 | 1490 | Cc1ccc(F)c(C(=O)n2nc(Nc3ccc(N4CCN(C)CC4)cc3)nc2N)c1F [Cpd 72, 1-(2,6-difluoro-3-methylbenzoyl)-N^3-[4-(4-methyl-1-piperazinyl)phenyl]-1H-1,2,4-triazole-3,5-diamine]
3 | 2200 | 29 | 176 | Cc1ccsc1C(=O)n1nc(Nc2ccc(N3CCN(C)CC3)cc2)nc1N [Cpd 73, N^3-[4-(4-methyl-1-piperazinyl)phenyl]-1-[(3-methyl-2-thienyl)carbonyl]-1H-1,2,4-triazole-3,5-diamine]
4 | 460 | 21 | 62 | Cc1cc(C)c(C(=O)n2nc(Nc3ccc(N4CCN(C)CC4)cc3)nc2N)s1 [Cpd 74, 1-[(3,5-dimethyl-2-thienyl)carbonyl]-N^3-[4-(4-methyl-1-piperazinyl)phenyl]-1H-1,2,4-triazole-3,5-diamine]
5 | 520 | 33 | 60 | CCc1ccc(C(=O)n2nc(Nc3ccc(N4CCN(C)CC4)cc3)nc2N)s1 [Cpd 75, 1-[(5-ethyl-2-thienyl)carbonyl]-N^3-[4-(4-methyl-1-piperazinyl)phenyl]-1H-1,2,4-triazole-3,5-diamine]
6 | 109 | 86.9 | 413 | CCc1ccc(C(=O)n2nc(Nc3ccc(S(=O)(=O)N(C)C)cc3)nc2N)s1 [Cpd 86, 4-[[5-amino-1-[(5-ethyl-2-thienyl)carbonyl]-1H-1,2,4-triazol-3-yl]amino]-N,N-dimethyl-benzenesulfonamide]
7 | 217 | 16.8 | 436 | Cc1ccsc1C(=O)n1nc(Nc2ccc(S(=O)(=O)N(C)C)cc2)nc1N [Cpd 87, 4-[[5-amino-1-[(3-methyl-2-thienyl)carbonyl]-1H-1,2,4-triazol-3-yl]amino]-N,N-dimethyl-benzenesulfonamide]
8 | 313 | 965 | ~1000 | Cc1ccc(F)c(C(=O)n2nc(Nc3ccc(S(=O)(=O)N(C)C)cc3)nc2N)c1F [Cpd 88, 4-[[5-amino-1-(2,6-difluoro-3-methylbenzoyl)-1H-1,2,4-triazol-3-yl]amino]-N,N-dimethyl-benzenesulfonamide]
9 | 710 | 598 | ~10000 | CN(C)S(=O)(=O)c1ccc(Nc2nc(N)n(C(=O)c3c(F)cccc3F)n2)cc1 [Cpd 89, 4-[[5-amino-1-(2,6-difluorobenzoyl)-1H-1,2,4-triazol-3-yl]amino]-N,N-dimethyl-benzenesulfonamide]
10 | ~1000 | ~100 | ~100 | CCc1ccc(C(=O)n2nc(Nc3ccc(-n4ccnc4)cc3)nc2N)s1 [Cpd 90, 1-[(5-ethyl-2-thienyl)carbonyl]-N^3-[4-(1H-imidazol-1-yl)phenyl]-1H-1,2,4-triazole-3,5-diamine]
11 | 335 | 73.6 | 223 | Cc1ccsc1C(=O)n1nc(Nc2ccc(-n3ccnc3)cc2)nc1N [Cpd 91, N^3-[4-(1H-imidazol-1-yl)phenyl]-1-[(3-methyl-2-thienyl)carbonyl]-1H-1,2,4-triazole-3,5-diamine]
12 | 452 | 727 | ~1000 | Nc1nc(Nc2ccc(-n3ccnc3)cc2)nn1C(=O)c1c(F)cccc1F [Cpd 93, 1-(2,6-difluorobenzoyl)-N^3-[4-(1H-imidazol-1-yl)phenyl]-1H-1,2,4-triazole-3,5-diamine]
13 | 272 | 409 | 147 | Cc1ccc(F)c(C(=O)n2nc(Nc3ccc(-n4ccnc4)cc3)nc2N)c1F [Cpd 94, 1-(2,6-difluoro-3-methylbenzoyl)-N^3-[4-(1H-imidazol-1-yl)phenyl]-1H-1,2,4-triazole-3,5-diamine]
14 | 139 | 260 | 914 | Cc1ccc(F)c(C(=O)n2nc(Nc3ccc(-n4cncn4)cc3)nc2N)c1F [Cpd 95, 1-(2,6-difluoro-3-methylbenzoyl)-N^3-[4-(1H-1,2,4-triazol-1-yl)phenyl]-1H-1,2,4-triazole-3,5-diamine]
15 | 373 | 817 | 1410 | Nc1nc(Nc2ccc(-n3cncn3)cc2)nn1C(=O)c1c(F)cccc1F [Cpd 96, 1-(2,6-difluorobenzoyl)-N^3-[4-(1H-1,2,4-triazol-1-yl)phenyl]-1H-1,2,4-triazole-3,5-diamine]
16 | ~100 | ~100 | ~10 | CCc1ccc(C(=O)n2nc(Nc3ccc(-n4cncn4)cc3)nc2N)s1 [Cpd 97, 1-[(5-ethyl-2-thienyl)carbonyl]-N^3-[4-(1H-1,2,4-triazol-1-yl)phenyl]-1H-1,2,4-triazole-3,5-diamine]
17 | > 100 | ~100 | ~100 | Cc1cc(C)c(C(=O)n2nc(Nc3ccc(-n4cncn4)cc3)nc2N)s1 [Cpd 98, 1-[(3,5-dimethyl-2-thienyl)carbonyl]-N^3-[4-(1H-1,2,4-triazol-1-yl)phenyl]-1H-1,2,4-triazole-3,5-diamine]
18 | 340 | 1100 | 1290 | Nc1nc(Nc2ccc(-n3cnnc3)cc2)nn1C(=O)c1c(F)cccc1F [Cpd 100, 1-(2,6-difluorobenzoyl)-N^3-[4-(4H-1,2,4-triazol-4-yl)phenyl]-1H-1,2,4-triazole-3,5-diamine]

Reference: patent publication US6924302B2, “Substituted triazole diamine derivatives as kinase inhibitors” (Ortho McNeil Pharmaceutical, Inc., priority 2000, dated 2005)
